Source: patent US12453358B2, “Theanine-producing strain and use thereof in tea fermentation production” (GUANGZHOU ZHONGZHUANG BEAUTY COSMETICS CO., LTD, priority 2024, dated 2025)

Key:
hyaluronic acid (HA) = experiment: Anti-wrinkle index test: HA content in UVA-stimulated fibroblasts (ELISA); format: cell-based, human; settings: UVA 7 J/cm^2, samples 24 h, black tea fermentation liquor 6%, VC 80 µg/ml, GSH 20 m/ml
Procedure: (§1) Test of anti-wrinkle index of fibroblasts: fibroblasts were set with a blank control group, a model group, a positive control group and a sample group. The number of cells per well was controlled to be 5×10^5. After incubation at 37° C. for 24 h in a 5% CO2 incubator, the medium was removed and a small amount of PBS (pH of 7.4) was added to just cover the cells. The cells were stimulated with UVA at the UV radiation dose of 7 J/cm^2, and the blank control group was not radiated. PBS was discarded, samples with different concentrations were added, with the addition concentration of the black tea fermentation liquor being 6%, VC being 80 µg/ml, and GSH being 20 m/ml; and the cells were stimulated for 24 h. The cell culture supernatants were centrifuged for 15 min at 4° C. and 1000 g, and the supernatants were tested for MMP-1 content using human matrix metalloproteinase-1 (MMP-1) ELISA Kit. The cell suspension was diluted with PBS (pH of 7.2-7.4) to obtain a cell concentration of 1×10^6 cells/mL, and the cells were ruptured after repeated freeze-thaw treatment. The cells were centrifuged at 1000 g for 20 min to obtain the supernatant, which was used to test the CoLI content using a type I collagen (CoLI) test box, and test the HA content using human hyaluronic acid (HA) ELISA Kit. All operations were conducted in accordance with the kit instructions.

type I collagen (CoLI) = experiment: Anti-wrinkle index test: CoL I content in UVA-stimulated fibroblasts (type I collagen test box); format: cell-based; settings: UVA 7 J/cm^2, samples 24 h, black tea fermentation liquor 6%, VC 80 µg/ml, GSH 20 m/ml
Procedure: as §1

MMP-1 = experiment: Anti-wrinkle index test: MMP-1 content in supernatant of UVA-stimulated fibroblasts (ELISA); format: cell-based, human; settings: UVA 7 J/cm^2, samples 24 h, black tea fermentation liquor 6%, VC 80 µg/ml, GSH 20 m/ml
Procedure: as §1

[1] = test system: theanine synthesis system; experiment: High throughput screening of alanine decarboxylase CsAlaDC mutant enzyme in theanine synthesis system; format: biochemical, Escherichia coli
Procedure: First, a BL21-GMAS-CsAlaDC recombinant single colony was selected and loaded onto a 96-well plate, added into a 800 μL LB medium, and cultured at 37° C. and 900 r/min for 6 h; thereafter, IPTG (isopropyl-3-D-thiogalactoside) at a final concentration of 0.1 mM was added, and cultured at 24° C. for 16 h. Into the 96-well plate, 0.1 mL glycerol, 200 μL potassium glutamate of 50 mM, 200 μL alanine of 50 mM, 50 μL ATP of 10 mM, 80 μL MgCl2 of 5 mM, 85 μL DTT of 10 mM, and 85 μL Tris-HCl of 100 mM (pH 7.5) were sequentially added, to form a theanine synthesis system. The synthesis reaction was conducted for 24 h in a 30° C. water bath and repeated three times. […]
Color developing solution: 1.0 g/L soluble starch was weighed, mixed with distilled water, and boiling distilled water was added. […] After cooling, insoluble substances were filtered through a quantitative filter paper, and 1.0 g sodium hydroxide was added. […]
10 mL EP tubes were taken, 1 mL theanine sample and 4 mL sodium bicarbonate solution were added to one tube, and 5 mL sodium bicarbonate solution was added to the other tube, mixed and then stood for 5 min. […] Immediately after being mixed well, their absorbance values were respectively measured at the wavelength of 570 nm on the spectrophotometer by using distilled water as reference and with a cuvette. A high absorbance at 570 nm indicates a high theanine content. […]

| Molecule | HA content (hyaluronic acid (HA)) | CoL I content (type I collagen (CoLI)) | MMP-1 content (MMP-1) | content of theanine catalyzed by the enzyme ([1]; BL21-GMAS-CsAlaDC recombinant, glutamate + alanine + ATP, no ethylamine, 30° C., 24 h) [µM] | theanine content higher than that of original enzyme CsAlaDC ([1]; compared with original enzyme CsAlaDC) [%] |
| --- | --- | --- | --- | --- | --- |
| N[C@@H](CCC(=O)N[C@@H](CS)C(=O)NCC(=O)O)C(=O)O [GSH] | 5.45 | 6.89 | 21.17 | – | – |
| O=C1O[C@H]([C@@H](O)CO)C(O)=C1O [VC] | 4.38 | 2.45 | 20.42 | – | – |
| CsAlaDC-I177Y (protein) MEGTVSVLSNVSKVELLSKCFDLITIPVEPLPPVVASNGVAGGETKKMKEKDIVLGKNVHTTSLTITEPDVDDDSTSDMEAFMAGVLVRYRKTLIEKTKYHLGYPFNLDLDYGPLAELQHFAINNLGDPFIESNYGVHSRQFEVGVLDWFARLWEIEQKEYWGYITNGGTEGNLHGYLVGREVFPDGIFYTSRESHYSIFKAARMYRMECVKVGTLINGEIDCADFKAKLLSNKDKPAIINLNIGTTVKGAVDDIDLVIQTLEECGFSHDRFYIHCDGALFGFMMPFLNRGPKITFKKPIGSVSVSGHKFMGCPTPCGVQITRLEHINALSRNVEYLASRDATITGSRNGHSPIILWYALNRKGFKGFQKEVQKCLRNAHYLKDRLREAGISAMLNELSSTVVFERPLDEEFVRRWQLACEGNMAHVIVMPNVTIEKLDEFLNELVQKRANWYNDGKAGPPCLAPDIGSENCDCDLHK | – | – | – | 93.6 | 85 |
